{"source": "patent US9133484B2", "about": "“Transfection agent” (3-D MATRIX, LTD., priority 2008, dated 2015)", "key": {"[1]": {"tested_on": "cultured human malignant glioma cells (U87MG, T98G, U251MG)", "assay": "Introduction of Cy3-labeled siRNA into cells, fluorescence microscopy", "format": "cell-based", "conditions": "siRNA 50 nM plus peptide surfactant 20 μg/ml, 8 hours, all three types of cells", "procedure": "The introduction of siRNA into cells by peptide surfactant was confirmed by microscopic observation of fluorescent-labeled siRNA.\n(§1) <Materials> • *Peptide surfactant • Sequence: Ac-AAAAAAK-NH2 (SEQ ID NO: 17) (Celtek) • *siRNA • siRNA/MMP-2 (Santa Cruz) • *siRNA fluorescent labeling reagent • Label IT Cy-3 Labeling Kit (Mirus) • *Cells • Three types of cultured human malignant glioma cells (U87MG, T98G, U251MG, each acquired from ATCC)\nsiRNA/MMP-2 was labeled with Cy3 using the siRNA fluorescent labeling reagent in accordance with the Mirus protocol. 5000 of the cells were seeded into a chambered slide glass in accordance with the ATCC protocol and incubated for overnight. After removing the medium, siRNA to a final concentration of 50 nM and peptide surfactant to a final concentration of 20 μg/ml were added to 1 ml of medium followed by culturing for 8 hours. In a control group, only siRNA was cultured at a final concentration of 50 nM in 1 ml of medium."}, "MMP-2 mRNA": {"tested_on": "MMP-2 mRNA", "assay": "RNA interference effect by RT-PCR (MMP-2 target, beta-actin internal standard)", "format": "cell-based, human", "conditions": "siRNA 50 nM/peptide surfactant 20 μg/ml, 8 hours, U87MG, T98G, U251MG (FIGS. 4 to 6)", "procedure": "siRNA introduced into cells by peptide surfactant was confirmed to have RNA interference ability by RT-PCR.\n<Materials> • *Peptide surfactant • Sequence: Ac-AAAAAAK-NH2 (SEQ ID NO: 17) (Celtek) • *Cells • Three types of cultured human malignant glioma cells (U87MG, T98G, U251MG, acquired from ATCC)\n1×10^5 cells were seeded into a 24-well plate and cultured overnight in accordance with the ATCC standard protocol. After removing the medium, the following solutions were added to the final concentrations indicated below followed by culturing for 8 hours under the same culturing conditions as previously described. • (1) Blank control (medium only) • (2) Random oligo siRNA (Dharmacon)/peptide surfactant 20 μg/ml • (3) siRNA 50 nM • (4) Peptide surfactant 20 μg/ml • (5) siRNA 50 nM/peptide surfactant 20 μg/ml\n[…] was reverse-transcribed to cDNA using the Taqman Gene Expression Cell-to-Ct Kit (Applied Biosystems). Quantitative analysis was carried out using the Applied Biosystems 7500 Real-Time PCR System using MMP-2 for the target and beta-actin for the internal standard by Gene Expression Assay (Applied Biosystems)."}, "[2]": {"assay": "Cytotoxicity, MTT cell proliferation assay (Cell Titer 96 Aqueous One Solution)", "format": "cell-based", "conditions": "human, U87MG malignant glioma cells", "procedure": "Cytotoxicity was evaluated using cultured human cells for a peptide surfactant and two types of currently widely used cationic liposome-mediated gene transfer agents.\n<Materials> • *Added Substances • 1. Peptide surfactant (sequence: Ac-AAAAAAK-NH2(SEQ ID NO: 17), Celtek) • 2. Lipofectamine 2000 (Invitrogen) • 3. siFECTOR (B-Bridge International, Inc.) • *Cells • Cultured human malignant glioma cells (U87MG, acquired from ATCC) • *MTT Assay Reagent (for cell proliferation assay) • Cell Titer 96 Aqueous One Solution Cell Proliferation Assay Kit (Promega)\nThe cells were seeded in a 96-well plate in accordance with the recommended ATCC protocol (cell density: 2×10^4/well) followed by incubating overnight. The medium was replaced with fresh medium and the substances were added (final concentrations: 0.0005, 0.001, 0.005, 0.01, 0.05, 0.1, 0.5, 1, 5, 10, 25, 50, 75, 100, 250 and 500 μg/ml). The cells were cultured for 24 hours. After culturing, Cell Titer 96 Aqueous One Solution was added (20 μl/well) followed by measuring optical absorbance at 495 nm with a plate reader 4 hours later to quantify the number of viable cells."}, "[3]": {"tested_on": "cultured human malignant glioma cells (U87MG, T98G, U251MG)", "assay": "Relationship between peptide surfactant concentration and siRNA introduction efficiency (RFU)", "format": "cell-based", "procedure": "The manner in which the efficiency of introduction of siRNA into cells is dependent on concentration of peptide surfactant was examined by microscopic observation of fluorescent-labeled siRNA.\nas §1, with “(Celtek) • *Peptide surfactant concentrations: • 0, 0.5, 1.0, 5.0, 10.0, 20.0, 25.0 μg/ml” for “(Celtek)”, “U251MG,” for “U251MG, each”\nsiRNA/MMP-2 was labeled with Cy3 using the siRNA fluorescent labeling reagent in accordance with the Minis standard protocol. The labeled siRNA was then mixed with the peptide surfactant. siRNA to a final concentration of 50 nM and peptide surfactant to final concentrations of 0, 0.5, 1, 5, 10, 20 and 25 μg/ml were administered to 1×10^5 cells seeded in a 24-well plate containing medium at 1 ml/well, followed by culturing for 8 hours. After washing the wells with PBS, the cells were recovered and transferred to a 96-well plate where they were measured for optical absorbance."}, "[4]": {"tested_on": "cultured human malignant glioma cells (U87MG, T98G, U251MG)", "assay": "Time-based changes in amount of siRNA introduced into cells (RFU)", "format": "cell-based", "conditions": "siRNA 50 nM, peptide surfactant 20 μg/ml (FIG. 2)", "procedure": "Time-based changes in the amounts of siRNA introduced into cells by peptide surfactant were examined by microscopic observation of fluorescent-labeled siRNA.\n<Materials> • *Peptide surfactant • Sequence: Ac-AAAAAAK-NH2 (SEQ ID NO: 17) (Celtek) • *Peptide surfactant concentrations: • 0, 0.5, 1.0, 5.0, 10.0, 20.0, 25.0 μg/ml • *siRNA • siRNA/MMP-2 (Santa Cruz) • siRNA fluorescent labeling reagent • Label IT Cy-3 Labeling Kit (Mirus) • *Cells • Three types of cultured human malignant glioma cells (U87MG, T98G, U251MG, acquired from ATCC)\nsiRNA/MMP-2 was labeled with Cy3 using the siRNA fluorescent labeling reagent in accordance with the Minis standard protocol. The labeled siRNA was then mixed with the peptide surfactant. siRNA to a final concentration of 50 nM and peptide surfactant to a final concentration of 20 μg/ml were administered to 1×10^5 cells seeded in a 24-well plate containing medium at 1 ml/well, followed by incubating for 0.5, 1, 2, 4, 8, 16 and 24 hours. After washing the wells with PBS, the cells were recovered and transferred to a 96-well plate where they were measured for optical absorbance."}}}
{"substance": "Ac-AAAAAAK-NH2 [peptide surfactant, Ac-AAAAAAK-NH2]", "values": [{"measurement": "Uptake of Cy3-labeled siRNA", "setting": "[1]", "result": "confirmed"}, {"measurement": "Expression of MMP-2 mRNA", "setting": "MMP-2 mRNA", "result": "significantly inhibited"}, {"measurement": "CC50 at 24 h", "setting": "[2]", "result": 286, "unit": "µg/mL"}, {"measurement": "RFU versus peptide surfactant concentration (introduction of siRNA into cells)", "setting": "[3]; 0-25 μg/ml peptide surfactant, siRNA 50 nM, 8 hours, all three cell types (FIG. 3)", "result": "increases in RFU in proportion to increases in concentration"}, {"measurement": "concentration at which dose-dependent increases in RFU weakened", "setting": "[3]; Y98G cells, siRNA 50 nM, 8 hours", "result": "≥ 10", "unit": "µg/mL"}, {"measurement": "introduction of siRNA into cells", "setting": "[3]; peptide surfactant 20 μg/ml for 8 hours (with results of Example 3)", "result": "adequately and significantly result in introduction of siRNA into cells"}, {"measurement": "relative fluorescence units (RFU), siRNA incorporated into cells", "setting": "[4]; culturing for 1 to 8 hours", "result": "increased nearly proportionately"}, {"measurement": "RFU levels", "setting": "[4]; culturing for longer than 8 hours", "result": "essentially reached a plateau"}]}
